Measured values taken from US10660934B2, “Neuroprotective peptide” (SENJU PHARMACEUTICAL CO., LTD., priority 2016, dated 2020).
Where no end group is shown, it is not given here.

Assays:
SH-SY5Y cells = test: Hypoxia-induced cell death assay in human neuroblastoma SH-SY5Y cells (LDH); assay type: cell-based; settings: 100 nM, 24 hours hypoxia (O2 0.1% or less), glucose-free DMEM, mean ± standard error (n = 3)
Protocol: SH-SY5Y cells (ATCC) were sustainably cultured in a DMEM/F12 medium (Invitrogen, 11330-032) supplemented with a 10% serum (Invitrogen, 10062-147) under the condition of 37° C. and 5% CO2.
The cells were seeded on a 96-well plate (Iwaki, 3860-096) at a density of 2×10^4 cells/100 μl/well. The following day the medium was replaced with a DMEM/F12 medium comprising a 1% serum and 10 μM of a retinoic acid (Wako, 302-79-4) and differentiated by incubation for 2 days. After replacing the medium with a glucose-free DMEM medium supplemented with 100 nM of Peptide 1, a hypoxia state (O2 concentration of 0.1% or less) was induced by putting the plate in an Anaero Pack rectangular jar with Anaero Pack Kenki 5% (Mitsubishi Gas Chemical Company, Inc., A-07) with hermetically sealing, and culturing at 37° C. Alter culturing for 24 hours in the hypoxia state, the cell-death inhibiting rate by the peptide was calculated by measuring the amount of LDH in the cells and the medium, using an LDH cytotoxicity detection kit (Takara, MK401). Moreover, 100 nM of an IGF-1 was used as a positive control in the experiment IGF-1 has a protective effect against nerve cell death (Mol. Cell Neurosci, 2011, 47 (3), 181-190). 3. Test Results

[1] = test system: rat retinal ganglion cells (RGC); test: Hypoxia-induced cell death assay in rat retinal ganglion cells (Calcein-AM/Ethidium homodimer); assay type: cell-based; settings: for Rate of cell-death suppression (%): 24 hours hypoxia
Protocol: Retinal ganglion cells were isolated by a magnetic activated cell sorting method (MACS). Retinas were harvested from neonatal rats (Slc: Sprague-Dawley, 7-day old) and the tissue was dissociated using a Neural Tissue Dissociation Kit (Miltenyi Biotec, 130-094-802). Then, using a Retinal Ganglion Cell Isolation Kit (Miltenyi Biotec, 130-096-209), the endothelial cells and microglia were removed, and a positive selection for CD90.1^+ RGC was carried out by means of CD90.1MicroBeads. The test was carried out with the approval of the Animal Test Ethics Committee based on the Act on Welfare and Management of Animals (Act number 105 of Oct. 1, 1973, last revision: Act number 38 of Jun. 12, 2013), etc. 2. Cell Culture
After suspending the isolated RGC in a neurobasal medium (Gibco Corporation, 12348-017) containing a B27 supplement (Invitrogen, 0080085-SA), 1 mM of L-glutamine (Gibco, 25030), 50 ng/ml of BDNF (Peprotech, 25-02), 50 ng/ml of CNTF (Peprotech, 450-50) and 5 μm of Forskolin. (Sigma, F6886), they were seeded on a 96-well plate (Corning, 354596), ‘which’ was coated with poly-D-lysine/laminin, at a density of 5×10^3 cells/100 μl/well, and incubated at 37° C. and 5% CO2 for three days.
After having replaced the media with neurobasal media comprising a B27 supplement, 1 mM of L-glutamine […] and each peptide, a hypoxia state (O2 concentration of 0.1% or less) was induced by putting the plate in an Anaero Pack rectangular jar with Anaero Pack Kenki 5% (Mitsubishi Gas Chemical Company, Inc., A-07) with hermetically sealing, and incubating at 37° C. After incubating for 24 hours under hypoxia condition, Calcein-AM and Ethidium homodimer (Invitrogen, L3224) were added to the media. As a result of staining the cells, it was possible to distinguish between the viable cells and the dead cells. The number of viable cells and dead cells were measured using an Image Pro plus, and the rate of viability was given as “the proportion of the viable cell count relative to the total cell count.” 4. Test Results
The isolation and incubation of RGC were performed by the same methods as for Test Example 3-1, and 2.
Commercially available PRP4 (Abnova, H0011272-Q01) having the sequence of SEQ ID NO: 2, was used for Peptide 5. The evaluation of Peptide 5 was carried out by the same evaluation method as used for Test Example 3-3.

[2] = Stability in a vitreous humor solution; assay type: in vitro ADME, rabbit
Protocol: (Two) rabbits were euthanized by intravenous administration of 5 ml of a pentobarbital sodium solution, and then their eyeballs were removed. An incision was made in the equatorial region of each eyeball and the vitreous humor-solution was harvested from each eyeball using a syringe (18G injection needle) at the site of incision. The mixed vitreous humor solution was filtered with a cell strainer (40 μm) and the filtrate was used as the vitreous humor solution for the stability tests. 600 μl of the vitreous humor solution was mixed with 1.2 μl of a Primocin at a concentration of 50 mg/ml and the resultant solution was used as sample solution. 270 μl of the sample solution and […] in a 30 μl aqueous solution were mixed and the resultant mixture was used as the test sample. The test sample was incubated at 37° C. […] The analysis samples were stored frozen at −20° C. until it was time to take readings using them. […] Then, the concentration of Peptide 1 in each sample was analyzed using liquid chromatography. The concentrations were calculated from the area values obtained using the external standard method. […]
The residual rate was calculated using the following formula: Residual rate=(the concentration of peptide after 7 days' incubation/the concentration of peptide in the test samples immediately after they were prepared)×100 [Formula 1]

[3] = 100 nM, mean ± standard error (n = 14-19)

Molecule: IGF-1
- Cell lethality (%) (SH-SY5Y cells): 88.1 ± 8.3 %

Molecule: QQRPP (Peptide of PRP4) [Peptide 4]
- Rate of cell-death suppression (%) [1, 3]: 31.1 ± 7.8 %

Molecule: HPPPPPFQ (peptide of PRP4) [Peptide 3]
- Rate of cell-death suppression (%) [1, 3]: 27.2 ± 6.6 %

Molecule: HPPPPPFQNQQRPP [Peptide 1, HPPPPPFQNQQRPP]
- stability in a vitreous humor solution (in words) ([2]; 7 days at 37° C.): stable in a vitreous humor solution
- remaining at 168 h ([2]; vitreous humor solution (filtered, from rabbit eyeballs), after 7 days' incubation at 37° C. in rabbit vitreous humor solution, read-out: Residual ratio (%)): 98.4%

Molecule: HPPPPPFQNQQ (peptide of PRP4) [Peptide 2]
- Rate of cell-death suppression (%) [1, 3]: 26.4 ± 4.8 %

B1: Peptide 5: Commercially available PRP4 (Abnova, H0011272-Q01) having the sequence of SEQ ID NO: 2 (protein)
chain: QSTDNDVNYEDFTFTIPDVEDSSQRPDQGPQRPPPEGLLPRPPGDSGNQDDGPQQRPPKPGGHHRHPPPPPFQNQQRPPQRGHRQLSLPRFPSVSLQEAS
modifications: commercial recombinant protein, possible tag; Peptide of PRP4
- Rate of cell-death suppression (%) ([1]; 10 nM, mean ± standard error (n = 12 to 18)): 66.2 ± 14.4 %
- suppression of cell death from hypoxia (in words) ([1]; rat RGC, Test Example 4, 10 nM): significantly suppressed the cell death from hypoxia
